Measured values reported in BindingDB's records for PubMed 9353361 (National Institute of Diabetes and Digestive and Kidney …, 1997).
Several values for one entry are separate records, joined by “and”; a condition that tells them apart may be missing. Identical values can stand only once.

Target: Gamma-aminobutyric acid receptor subunit alpha-5 (Rattus norvegicus, UniProt P19969)
Sequence (P19969 whole entry): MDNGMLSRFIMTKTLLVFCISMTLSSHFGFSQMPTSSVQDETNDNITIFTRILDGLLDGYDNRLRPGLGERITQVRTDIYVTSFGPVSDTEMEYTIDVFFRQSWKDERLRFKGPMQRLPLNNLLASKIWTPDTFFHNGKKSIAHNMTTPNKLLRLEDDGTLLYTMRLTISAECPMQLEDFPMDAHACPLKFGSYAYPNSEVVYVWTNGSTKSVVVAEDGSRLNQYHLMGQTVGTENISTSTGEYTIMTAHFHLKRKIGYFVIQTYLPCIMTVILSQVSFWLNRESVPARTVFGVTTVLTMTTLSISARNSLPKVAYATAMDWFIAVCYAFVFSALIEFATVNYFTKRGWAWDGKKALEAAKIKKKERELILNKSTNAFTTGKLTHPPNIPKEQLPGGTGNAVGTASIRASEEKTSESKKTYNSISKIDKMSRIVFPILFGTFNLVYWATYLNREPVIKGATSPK

CN1C(=O)CN=C(c2ccccc2)c2cc(C#N)ccc21 showed a Ki of 34 nM.
For CN1Cc2c(C(=O)OC(C)(C)C)ncn2-c2ccc(C#C[Si](C)(C)C)cc2C1=O, the Ki was 1.03 nM and 0.83 nM.
